Legend:
SH-SY5Y cells = assay: Neurite outgrowth (differentiation) in SH-SY5Y cells, Tubulin Tracker imaging; assay type: cell-based, human
Procedure: Transferrin is utilized in cell culture and in-vivo to deliver iron as a nutrient to cells. This is typically accomplished through the actions of holo-transferrin (HoloTf) binding to, and endocytosis by, its cognate receptor CD71, the transferrin receptor 1 (TfR1). Transferrin is typically believed to provide cells with iron as a means to promote and sustain metabolic activity. […] Induction of neuronal differentiation was assessed by morphological parameters of neurite formation (a key element typically used as a marker of neuronal differentiation, neuronal health, and function) according to the procedures of Agholme, 2010. J. of Alzheimer's Disease. Vol. 20:1p 069-108; and Dyberg et al., 2017. PNAS Vol 114 (32), E6603-E6612.
Undifferentiated SH-SY5Y cells were seeded into 96 well clear bottom plates in media containing 0.1% FBS. A serum-free base media was utilized as recommended by the supplier for SH-SY5Y cells (Sigma, Cat #94030304-1VL). Twenty-four hours after seeding cells, a 3× stock solution of ApoTf, final concentrations indicated on the x-axis, in serum free base media was added to the cells. ApoTf was obtained and purified from pooled human plasma and dosed at a final concentration of 0.2 mg/mL.
Cells were allowed to differentiate for 6 days. Neurite growth was assessed by imaging and image analysis. At the time of analysis, a 10× solution of Tubulin Tracker (Molecular Probes, T34075) and Hoechst 33342 (Molecular Probes #H3570) nuclear stain was prepared.
Briefly, Tubulin Tracker dissolved in DMSO was diluted 1:1 with Pluronic F-127 and further diluted into HBSS to generate a 10× solution. Hoechst 33342 was added to the HBSS-Tubulin Tracker solution at 10 μg/mL to generate a 10× nuclear stain. The 10× staining solution (10 μL) was added directly to treated assay wells and incubated at 37° C. for 30 minutes. Following incubation, 110 μL of 0.4% Trypan Blue was added directly to assay wells and imaged on a Molecular Devices Nano imaging instrument. Nine images/well were acquired in the blue (Nuclei) and green (Tubulin) fluorescent channels for each image.
After obtaining images, the MetaExpress Neurite Outgrowth analysis module (Molecular Devices) was used to identify cells, cell bodies, and quantify neurites. The total number of neurite branches were divided by the total number of cells imaged to account for different numbers of cells in each test well. The Outgrowth Fold Change was determined by setting the untreated control cells to a value of 1 with all other treatments shown relative to untreated control.
Undifferentiated SH-SY5Y cells were seeded and treated as described in Example 1. Neurite growth was assessed by imaging and image analysis. At the time of analysis, a 10× solution of Tubulin Tracker (Molecular Probes, T34075) and Hoechst 33342 (Molecular Probes #H3570) nuclear stain was prepared. Briefly, Tubulin Tracker dissolved in DMSO was diluted 1:1 with Pluronic F-127 and further diluted into HBSS to generate a 10× solution. Hoechst 33342 was added to the HBSS-Tubulin Tracker solution at 10 μg/mL to generate at 10× nuclear stain. The 10× staining solution (10 μL) was added directly to treated assay wells and incubated at 37° C. for 30 minutes. Following incubation, 110 μL of 0.4% Trypan Blue was added directly to assay wells and imaged on a Molecular Devices Nano imaging instrument. Nine images/well were acquired in the blue (Nuclei) and green (Tubulin) fluorescent channels for each image. After obtaining images, the MetaExpress Neurite Outgrowth analysis module (Molecular Devices) was used to identify cell bodies and quantify neurites. The total number of neurite branches were divided by the total number of cells imaged to account for different numbers of cells. The Outgrowth Fold Change was determined by setting the untreated control to a value of 1 with all other treatments shown relative to untreated control. ApoTf was obtained and purified from pooled human plasma and dosed at a final concentration of 0.2 mg/mL. […]

HIF-1α = settings: reported in US2016008437; cited from earlier work
[1] = tested on: C57BL/6J mice with transient MCAo; assay: Neurogenesis in dentate gyrus of mice after transient MCAo (BrdU/DCX, BrdU/NeuN immunohistochemistry); assay type: in vivo, mouse; settings: 350 mg/kg i.p. daily 7 days, vs saline; for number of new neuroblasts (BrdU+/DCX+ cells): FIG. 9A, two-week period; for number of newly formed mature neurons (BrdU+/NeuN+ cells): FIG. 9B, after 4 weeks
Procedure: C57BL/6J mice (ca. 20 g) were anaesthetized under isoflurane and, after dissection, a 6.0 silicon-coated monofilament suture was inserted into the external carotid artery to occlude the middle cerebral artery (MCAo). The occlusion was carried out for 60 minutes under temperature control.
Only animals with a ‘neuroscore’ of 4 or greater were considered for further testing (n=8-10 animals/group). At six hours post-occlusion, mice were injected daily with 350 mg/kg of Apo-transferrin (i.p.) or an equal volume of saline for a total of seven days, as well as with 50 mg/kg Bromodeoxyuridine (BrdU; Sigma-Aldrich Chemical, St. Louis, Mo.), both articles delivered by intraperitoneal administration. Weight changes were monitored daily.
At the times indicated in Example 9, brains were prepared for analysis by transcardial perfusion with ice cold heparinized saline (heparin at 2.5 IU/ml) in order to remove blood from the brains. Fresh brains were removed leaving the right cerebellum attached to whole left-brain hemisphere to help orientate the brain block in sectioning. The whole left hemisphere block was placed in 4% paraformaldehyde in 0.1 M phosphate buffer (PB) for 24 hours at +4° C., then cryoprotected in 30% sucrose in 0.1 M PB for 2-3 days on a shaker at +4° C. The brain was then blotted to remove excess liquid, placed on top of a vial cork and frozen on top of liquid nitrogen; the block was then stored at −80° C. until cryostat sections are obtained. Neurogenesis was evaluated by immunohistochemistry using antibodies against BrdU and Doublecortin (DCX) to quantify new neuroblasts or against BrdU and NeuN to quantify new neurons in the dentate gyrus of the brain.

With “apo-transferrin: iron-free form of transferrin protein, obtained and purified from pooled human plasma” the “neurite outgrowth (Outgrowth Fold Change)” value (SH-SY5Y cells; FIG. 1A, dose response up to 0.8 mg/mL, 6 days) was “able to induce neurite outgrowth in a dose dependent manner”, the “neurite/tubulin outgrowth, visual comparison to untreated control” value (SH-SY5Y cells; FIG. 1C, 0.1 mg/mL) was “promoting induction of neurite/tubulin outgrowth” and the “neurite outgrowth / differentiation versus concentration” value (SH-SY5Y cells; FIG. 3A, DFO versus ApoTf) was “continues to increase differentiation even up to 9.9 μM”. For the same substance, the “neurogenesis (neurite outgrowth) of SH-SY5Y” value (SH-SY5Y cells; FIG. 3B, proteins at 0.2 mg/mL) was “did induce neurogenesis”, the “neurogenic effect, ApoTf in combination with Y-27632” value (SH-SY5Y cells; FIG. 8, ApoTf 0.1 mg/mL plus Y-27632 50 μM) was “the neurogenic effect was synergistic” and the “differentiation / neurite outgrowth, combination with neurotrophic factors” value (SH-SY5Y cells; FIGS. 7A-7D, ApoTf 0.1 mg/mL plus factor) was “synergistic effect”. For the same substance, the HIF-1α production (HIF-1α) was “can induce HIF-1α production”, the “number of new neuroblasts (BrdU+/DCX+ cells)” value [1] was “increases the amount of neurogenesis” and the “number of new neuroblasts (BrdU+/DCX+ cells)” value ([1]; listed as ApoTf) was “increases the number of neuroblasts”. For the same substance, the “number of newly formed mature neurons (BrdU+/NeuN+ cells)” value [1] was “increases the amount of neurogenesis” and the “number of newly formed mature neurons (BrdU+/NeuN+ cells)” value ([1]; listed as ApoTf) was “number of newly formed mature neurons are higher”.
